“And” between values parts separate entries of the source, which are not always exact repeats. Equal entries are not always repeated. Toxic doses and inconclusive results are not listed. No stated cut-off is given here; in the data, active means T/C of 150% or more; inactive means T/C below 125%.
Test system: L1210 leukemia ip in BDF1 mice, survival T/C
Assay: NCI In Vivo Anticancer Drug Screen. Data for tumor model L1210 Leukemia (intraperitoneal) in B6D2F1 (BDF1) mice
Details: endpoint: mean survival time, higher = longer survival
In short: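 Tumor was transplanted into mice, which were then dosed with test compound or vehicle alone. Survival was recorded for each group, and the treated figure was expressed relative to the control figure.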

[1] = dose: 100.0 mg/kg/injection, schedule: Q01DX001 (ip), vehicle: other
[2] = dose: 200.0 mg/kg/injection, schedule: Q01DX001 (ip), vehicle: other
[3] = dose: 400.0 mg/kg/injection, schedule: Q01DX001 (ip), vehicle: other
[4] = dose: 100.0 mg/kg/injection, schedule: Q01DX001 (ip), vehicle: saline
[5] = dose: 200.0 mg/kg/injection, schedule: Q01DX001 (ip), vehicle: saline
[6] = dose: 400.0 mg/kg/injection, schedule: Q01DX001 (ip), vehicle: saline
[7] = dose: 12.5 mg/kg/injection, schedule: Q01DX009 (ip), vehicle: Klucel (hydroxypropylcellulose) (HPC)
[8] = dose: 25.0 mg/kg/injection, schedule: Q01DX009 (ip), vehicle: Klucel (hydroxypropylcellulose) (HPC)
[9] = dose: 50.0 mg/kg/injection, schedule: Q01DX009 (ip), vehicle: Klucel (hydroxypropylcellulose) (HPC)
[10] = dose: 100.0 mg/kg/injection, schedule: Q01DX009 (ip), vehicle: Klucel (hydroxypropylcellulose) (HPC)
[11] = dose: 100.0 mg/kg/injection, schedule: Q04DX003 (ip), vehicle: Klucel (hydroxypropylcellulose) (HPC)
[12] = dose: 200.0 mg/kg/injection, schedule: Q01DX009 (ip), vehicle: Klucel (hydroxypropylcellulose) (HPC)
[13] = dose: 200.0 mg/kg/injection, schedule: Q04DX003 (ip), vehicle: Klucel (hydroxypropylcellulose) (HPC)
[14] = dose: 400.0 mg/kg/injection, schedule: Q01DX009 (ip), vehicle: Klucel (hydroxypropylcellulose) (HPC)
[15] = dose: 400.0 mg/kg/injection, schedule: Q04DX003 (ip), vehicle: Klucel (hydroxypropylcellulose) (HPC)
[16] = dose: 100.0 mg/kg/injection, schedule: Q01DX001 (ip), vehicle: carboxymethylcellulose (CMC)
[17] = dose: 100.0 mg/kg/injection, schedule: Q01DX009 (ip), vehicle: carboxymethylcellulose (CMC)
[18] = dose: 100.0 mg/kg/injection, schedule: Q04DX002 (ip), vehicle: carboxymethylcellulose (CMC)
[19] = dose: 200.0 mg/kg/injection, schedule: Q01DX001 (ip), vehicle: carboxymethylcellulose (CMC)
[20] = dose: 200.0 mg/kg/injection, schedule: Q04DX002 (ip), vehicle: carboxymethylcellulose (CMC)
[21] = dose: 400.0 mg/kg/injection, schedule: Q01DX001 (ip), vehicle: carboxymethylcellulose (CMC)
[22] = dose: 400.0 mg/kg/injection, schedule: Q01DX009 (ip), vehicle: carboxymethylcellulose (CMC)
[23] = dose: 400.0 mg/kg/injection, schedule: Q04DX002 (ip), vehicle: carboxymethylcellulose (CMC)
[24] = dose: 100.0 mg/kg/injection, schedule: Q01DX009 (ip), vehicle: saline with Tween-80
[25] = dose: 100.0 mg/kg/injection, schedule: Q04DX003 (ip), vehicle: saline with Tween-80
[26] = dose: 200.0 mg/kg/injection, schedule: Q04DX003 (ip), vehicle: saline with Tween-80
[27] = dose: 400.0 mg/kg/injection, schedule: Q04DX003 (ip), vehicle: saline with Tween-80

Measured: T/C

CC1CCC2C(C)C3C(CC4C5CCC6CC(O)CCC6(C)C5CCC43C)N2C1 (stereo not given)
inactive: dose: 50.0 mg/kg/injection, schedule: Q01DX001 (ip), vehicle: other 91 % of control | [1] 88 % of control | [2] 96 % of control | [3] 91 % of control

NC(Cc1c[nH]c2ccc(F)cc12)C(=O)O (stereo not given)
inactive: [1] 95 % of control | dose: 100.0 mg/kg/injection, schedule: Q04DX003 (ip), vehicle: other 119 % of control | [2] 95 % of control | dose: 200.0 mg/kg/injection, schedule: Q04DX003 (ip), vehicle: other 102 % of control | [3] 89 % of control

CN(C(=O)OCc1ccccc1)c1ccc(C(=O)NC(CC(=O)O)CC(=O)O)cc1
inactive: [4] 88 % of control | [5] 96 % of control | [6] 90 % of control

CC(=O)[O][Hg][CH]1CCC2OC1CC[CH]2[Hg][O]C(C)=O (stereo not given)
inactive: [7] 97 % of control | [8] 94 % of control | dose: 25.0 mg/kg/injection, schedule: Q04DX003 (ip), vehicle: Klucel (hydroxypropylcellulose) (HPC) 91 % of control | [9] 96 % of control | dose: 50.0 mg/kg/injection, schedule: Q04DX003 (ip), vehicle: Klucel (hydroxypropylcellulose) (HPC) 98 % of control

CSc1ccc(OC(=O)NC2CCCCC2)cc1
inactive: [10] 98 % of control | [11] 98 % of control | [12] 101 % of control | [13] 101 % of control | [14] 116 % of control | [15] 101 % of control

CC(=O)C(C)C(C)(C)C (stereo not given)
inactive: [4] 106 % of control | [5] 92 % of control | [6] 97 % of control

Cc1cc(Cl)ccc1OC(=O)Nc1ccc(Cl)cc1
inactive: [16] 103 % of control | [17] 95 % of control and 101 % of control | dose: 100.0 mg/kg/injection, schedule: Q04DX002 (ip), vehicle: Klucel (hydroxypropylcellulose) (HPC) 98 % of control | [18] 96 % of control and 90 % of control | [19] 111 % of control | dose: 200.0 mg/kg/injection, schedule: Q01DX009 (ip), vehicle: carboxymethylcellulose (CMC) 97 % of control and 111 % of control | dose: 200.0 mg/kg/injection, schedule: Q04DX002 (ip), vehicle: Klucel (hydroxypropylcellulose) (HPC) 92 % of control | [20] 94 % of control and 97 % of control | [21] 98 % of control | [22] 97 % of control and 86 % of control | dose: 400.0 mg/kg/injection, schedule: Q04DX002 (ip), vehicle: Klucel (hydroxypropylcellulose) (HPC) 106 % of control | [23] 94 % of control and 90 % of control

CC1C(N2CCOCC2)CS1(=O)=O (stereo not given)
inactive: [10] 92 % of control | [11] 93 % of control | [12] 94 % of control | [13] 98 % of control | [14] 103 % of control | [15] 98 % of control

O=S1(=O)CCCCc2c1ccc1ccccc21
inactive: [4] 101 % of control | [5] 90 % of control | [6] 106 % of control

CC(=O)OC(C(=O)c1ccccc1)C(=O)c1ccccc1
inactive: dose: 100.0 mg/kg/injection, schedule: Q01DX001 (ip), vehicle: Klucel (hydroxypropylcellulose) (HPC) 88 % of control | dose: 200.0 mg/kg/injection, schedule: Q01DX001 (ip), vehicle: Klucel (hydroxypropylcellulose) (HPC) 108 % of control | dose: 400.0 mg/kg/injection, schedule: Q01DX001 (ip), vehicle: Klucel (hydroxypropylcellulose) (HPC) 88 % of control

O=C(O)c1ccc(C(=O)c2ccc([N+](=O)[O-])cc2)cc1
inactive: dose: 25.0 mg/kg/injection, schedule: Q01DX009 (ip), vehicle: carboxymethylcellulose (CMC) 102 % of control and 104 % of control | dose: 50.0 mg/kg/injection, schedule: Q01DX009 (ip), vehicle: carboxymethylcellulose (CMC) 95 % of control and 108 % of control | [16] 92 % of control and 97 % of control | [17] 95 % of control and 102 % of control | [18] 101 % of control and 102 % of control | dose: 100.0 mg/kg/injection, schedule: Q04DX003 (ip), vehicle: carboxymethylcellulose (CMC) 105 % of control and 114 % of control | [19] 98 % of control and 100 % of control | [20] 93 % of control and 95 % of control | dose: 200.0 mg/kg/injection, schedule: Q04DX003 (ip), vehicle: carboxymethylcellulose (CMC) 97 % of control and 98 % of control | [21] 93 % of control and 100 % of control | [22] 104 % of control | [23] 95 % of control and 98 % of control | dose: 400.0 mg/kg/injection, schedule: Q04DX003 (ip), vehicle: carboxymethylcellulose (CMC) 96 % of control and 88 % of control

CCC[CH2][Sn]1([CH2]CCC)[O]OC(c2ccc(C)cc2)[O]1 (stereo not given)
inactive: [7] 101 % of control | dose: 12.5 mg/kg/injection, schedule: Q04DX002 (ip), vehicle: Klucel (hydroxypropylcellulose) (HPC) 94 % of control | [8] 119 % of control | dose: 25.0 mg/kg/injection, schedule: Q04DX002 (ip), vehicle: Klucel (hydroxypropylcellulose) (HPC) 86 % of control

O=C1CC(c2ccccc2)C1(c1ccccc1)c1ccccc1 (stereo not given)
inactive: [11] 98 % of control | [13] 101 % of control | [15] 96 % of control

CC(=O)CC(=O)NCC(CCN1CCCCC1)(c1cccc2ccccc12)C(C)C (stereo not given)
inactive: [8] 106 % of control | [9] 95 % of control

CC1CC/C(=N\N(C)C)c2ccccc21 (stereo not given)
inactive: [24] 120 % of control | [25] 117 % of control | [26] 103 % of control | [27] 105 % of control

N#CC(C(=O)O)C1(C(C#N)C(=O)O)CCN(Cc2ccccc2)CC1 (stereo not given)
inactive: dose: 75.0 mg/kg/injection, schedule: Q01DX001 (ip), vehicle: carboxymethylcellulose (CMC) 96 % of control | dose: 150.0 mg/kg/injection, schedule: Q01DX001 (ip), vehicle: carboxymethylcellulose (CMC) 100 % of control | dose: 300.0 mg/kg/injection, schedule: Q01DX001 (ip), vehicle: carboxymethylcellulose (CMC) 102 % of control

COC(=O)CCSP(=S)(Oc1ccccc1)Oc1ccccc1
inactive: [10] 107 % of control | [12] 105 % of control | [14] 96 % of control

O=C1C(Br)=Cc2cccc3cccc1c23
inactive: dose: 25.0 mg/kg/injection, schedule: Q01DX009 (ip), vehicle: saline sonified 100 % of control | dose: 50.0 mg/kg/injection, schedule: Q01DX009 (ip), vehicle: saline sonified 97 % of control | dose: 100.0 mg/kg/injection, schedule: Q01DX009 (ip), vehicle: saline sonified 100 % of control | [24] 101 % of control | [11] 90 % of control | [25] 97 % of control | dose: 200.0 mg/kg/injection, schedule: Q01DX009 (ip), vehicle: saline with Tween-80 104 % of control | [26] 95 % of control | dose: 400.0 mg/kg/injection, schedule: Q01DX009 (ip), vehicle: saline with Tween-80 97 % of control | [15] 87 % of control | [27] 103 % of control

Cc1ccc(S(=O)(=O)Nc2ccc(C(=O)Cl)cc2)cc1
inactive: dose: 100.0 mg/kg/injection, schedule: Q04DX003 (ip), vehicle: gum acacia 95 % of control | dose: 200.0 mg/kg/injection, schedule: Q04DX003 (ip), vehicle: gum acacia 106 % of control | dose: 400.0 mg/kg/injection, schedule: Q04DX003 (ip), vehicle: gum acacia 90 % of control

Cc1ccc(S(=O)(=O)/C=C(\C=C/c2ccccc2)c2ccccc2)cc1
inactive: dose: 100.0 mg/kg/injection, schedule: Q04DX003 (ip), vehicle: acetone 95 % of control | dose: 200.0 mg/kg/injection, schedule: Q04DX003 (ip), vehicle: acetone 95 % of control

Cc1ccc(S(=O)(=O)NC(C)(C)CNc2ncnc(Cl)c2N)cc1
inactive: dose: 9.5 mg/kg/injection, schedule: Q01DX001 (ip), vehicle: other 101 % of control | dose: 19.0 mg/kg/injection, schedule: Q01DX001 (ip), vehicle: other 96 % of control

Reference: PubChem BioAssay AID248 (DTP/NCI, 2004)
